Measured values: paper PMC7278776, “Multidrug Resistance Modulation Activity of Silybin Derivatives and Their Anti-Inflammatory Potential” (Antioxidants, 2020)
Marks after values point to notes of the source that are not given here.

Tests used:
[1] = system: ABCG1; test: ABCG1 mRNA expression (real-time PCR); type: cell-based, human; details: A2780/DOX
Procedure: (§1) The A2780/DOX cell line was seeded into 5 cm Petri dishes with DMEM medium at 1 × 10^5 cell/mL. After 24 h, the dishes were washed with PBS and new DMEM medium supplemented with doxorubicin (at concentration equal to IC25) and samples (10 µM) were added. After 48 h of treatment, the cells were washed with PBS and harvested using the standard trypsin-EDTA procedure. The harvested cells were centrifuged (3200× g; 10 min, 4 °C). The supernatant was discarded, and the pellets were washed with 1.5 mL of cooled PBS (5400× g; 10 min, 4 °C). The washing step was repeated with 1 mL of PBS and the cells were centrifuged again (10,000× g; 3 min, 4 °C). Afterwards, the pellets were resuspended in 1 mL of Trizol (Invitrogen, Carlsbad, CA, USA) and transferred into pre-cooled RNase-free microfuge tubes. The samples were stored at −80 °C.
(§2) A Quant-iT RiboGreen RNA Assay Kit (Invitrogen) was used to determine the RNA concentration using the Infinite M200 plate reader (Tecan, Männedor, Switzerland). The cDNA was prepared from 0.5 µg of total RNA using a RevertAid First Strand Synthesis cDNA Kit (MBI Fermentas, Vilnius, Lithuania). The amplification of the ubiquitin C gene fragment was used to determine the quality of cDNA.
(§3) The experiment was performed using the ViiA7 Real-Time polymerase chain reaction (PCR) System (Life Technologies, Camarillo, CA, USA) with a 384-well block. Before quantitative real-time PCR, the master mix was prepared by mixing 2 µL of 8 × diluted cDNA, 1.75 µL of RNase free water, 1 µL of 5 × HotFIREPol Probe quantitative PCR Mix Plus (Solis Biodyne, Tartu, Estonia) and 0.25 µL of specific 20 × TaqMan Gene Expression Assay (Life Technologies), giving 5 µL of final reaction volume. Cycling parameters were: initial hold at 50 °C for 2 min and denaturation at 95 °C for 10 min, followed by 45 cycles consisting of denaturation at 95 °C for 15 s and annealing/extension at 60 °C for 1 min. After each extension phase, the fluorescence values were acquired. Duplicate samples were used for measurement and samples with a standard deviation of duplicates > 1.0 cycle threshold (Ct) were re-analyzed. The real time PCR procedure was maintained according to MIQE (Minimum information for publication of quantitative real-time PCR experiments) guidelines. The software REST 2009 (Qiagen, Hilden, Germany) served to compare relative transcript levels of genes in the cell line.

[2] = system: IL-6; test: IL-6 release by LPS-induced macrophages (ELISA); type: cell-based, mouse; details: for IC50: Mus musculus, RAW264.7, RAW 264.7, LPS + compound 6 h, read-out: IL-6, concentration necessary to halve the release (IC50); for IL-6 (pg/mL): untreated LPS control 1148 ± 35
Procedure: To determine the level of inflammatory cytokine IL-6, macrophages were cultivated with LPS (1 µg/mL) and the tested compounds (7–50 µM) for 6 h. After incubation, the plates were centrifuged (1000× g; 10 min, 4 °C) and then the medium was removed and frozen to −80 °C. Prior to the detection, the samples were diluted in ELISA diluent in a 1:10 ratio. Production of the cytokine was determined by uncoated ELISA performed according to the manufacturer’s instructions.

[3] = molecular target: T1, human recombinant P-gp (Homo sapiens, UniProt P08183); test: biochemical
T1 construct: purchased Promega
Procedure: The procedure and the dilution of the reagents were performed according to the manufacturer’s instructions. Briefly, the human recombinant P-gp-containing membrane (25 µg) was mixed in a 96-well plate with P-gp–Glo™ Assay buffer (control), verapamil (P-gp substrate, positive control, 0.2 mM), Na3VO4 (P-gp inhibitor, negative control, 0.1 mM), ATP standards (to construct the calibration curve, 0.375–3 mM) or samples (2.5 µL, in the concentration range 0.7–20 mM). After that, MgATP (5 mM) was added to total volume of 50 µL to each well to initiate the ATPase reaction. The plate was incubated for 1 h at 37 °C. Thereafter, the reaction was stopped by adding 50 µL of ATP detection reagent and incubated at room temperature for 20 min. The remaining non-metabolized ATP was detected as a luciferase-generated signal.
Using linear regression, the standard ATP curve was designed, and by subsequent interpolation of relative luminescence (RLU) of standards, the amount of ATP consumed in the samples was recalculated according to the manufacturer’s guidelines.

[4] = system: ABCC10; test: ABCC10 mRNA expression (real-time PCR); type: cell-based, human; details: A2780/DOX
Procedure: as §1, with “After 24 h, the dishes were washed with PBS and new DMEM medium supplemented with doxorubicin (at concentration equal to IC25) and samples (10 µM) were added.” left out
as §2, §3

[5] = system: ABCB9; test: ABCB9 mRNA expression (real-time PCR); type: cell-based, human; details: A2780/DOX, 10 µM combined with doxorubicin at IC25, 48 h
Procedure: as §1, §2, §3

[6] = system: ABCD1; test: ABCD1 mRNA expression (real-time PCR); type: cell-based, human; details: A2780/DOX
Procedure: as §1, §2, §3

[7] = system: ABCA5; test: ABCA5 mRNA expression (real-time PCR); type: cell-based, human; details: A2780/DOX
Procedure: as §1, §2, §3

[8] = system: TNF-α; test: TNF-α release by LPS-induced macrophages (ELISA); type: cell-based, mouse; details: for IC50: Mus musculus, RAW264.7, RAW 264.7, 24 h pre-cultivation, then LPS 2 h, read-out: TNF-α, concentration necessary to halve the release (IC50); for TNF-α (pg/mL): untreated LPS control 2954 ± 92
Procedure: To determine the level of inflammatory cytokine TNF-α, macrophages were pre-cultivated with the tested compounds (12.5–50 µM) for 24 h. Thereafter, the plates were washed with PBS and new MEM medium enriched with LPS (1 µg/mL) was added to the wells. After 2 h of incubation, the plates were centrifuged (1000× g; 10 min, 4 °C) and then the medium was removed and frozen to −80 °C. Prior to the detection, the samples were diluted in ELISA diluent in a 1:10 ratio. […]

[9] = system: ABCB6; test: ABCB6 mRNA expression (real-time PCR); type: cell-based, human; details: A2780/DOX
Procedure: as §1, with “After 24 h, the dishes were washed with PBS and new DMEM medium supplemented with doxorubicin (at concentration equal to IC25) and samples (10 µM) were added.” left out
as §2, §3

[10] = system: ABCB10; test: ABCB10 mRNA expression (real-time PCR); type: cell-based, human; details: A2780/DOX
Procedure: as §1, with “After 24 h, the dishes were washed with PBS and new DMEM medium supplemented with doxorubicin (at concentration equal to IC25) and samples (10 µM) were added.” left out
as §2, §3

[11] = 10 µM combined with doxorubicin at IC25, 48 h
[12] = 10 µM, 48 h, without doxorubicin

T1 sequence (P08183 whole entry): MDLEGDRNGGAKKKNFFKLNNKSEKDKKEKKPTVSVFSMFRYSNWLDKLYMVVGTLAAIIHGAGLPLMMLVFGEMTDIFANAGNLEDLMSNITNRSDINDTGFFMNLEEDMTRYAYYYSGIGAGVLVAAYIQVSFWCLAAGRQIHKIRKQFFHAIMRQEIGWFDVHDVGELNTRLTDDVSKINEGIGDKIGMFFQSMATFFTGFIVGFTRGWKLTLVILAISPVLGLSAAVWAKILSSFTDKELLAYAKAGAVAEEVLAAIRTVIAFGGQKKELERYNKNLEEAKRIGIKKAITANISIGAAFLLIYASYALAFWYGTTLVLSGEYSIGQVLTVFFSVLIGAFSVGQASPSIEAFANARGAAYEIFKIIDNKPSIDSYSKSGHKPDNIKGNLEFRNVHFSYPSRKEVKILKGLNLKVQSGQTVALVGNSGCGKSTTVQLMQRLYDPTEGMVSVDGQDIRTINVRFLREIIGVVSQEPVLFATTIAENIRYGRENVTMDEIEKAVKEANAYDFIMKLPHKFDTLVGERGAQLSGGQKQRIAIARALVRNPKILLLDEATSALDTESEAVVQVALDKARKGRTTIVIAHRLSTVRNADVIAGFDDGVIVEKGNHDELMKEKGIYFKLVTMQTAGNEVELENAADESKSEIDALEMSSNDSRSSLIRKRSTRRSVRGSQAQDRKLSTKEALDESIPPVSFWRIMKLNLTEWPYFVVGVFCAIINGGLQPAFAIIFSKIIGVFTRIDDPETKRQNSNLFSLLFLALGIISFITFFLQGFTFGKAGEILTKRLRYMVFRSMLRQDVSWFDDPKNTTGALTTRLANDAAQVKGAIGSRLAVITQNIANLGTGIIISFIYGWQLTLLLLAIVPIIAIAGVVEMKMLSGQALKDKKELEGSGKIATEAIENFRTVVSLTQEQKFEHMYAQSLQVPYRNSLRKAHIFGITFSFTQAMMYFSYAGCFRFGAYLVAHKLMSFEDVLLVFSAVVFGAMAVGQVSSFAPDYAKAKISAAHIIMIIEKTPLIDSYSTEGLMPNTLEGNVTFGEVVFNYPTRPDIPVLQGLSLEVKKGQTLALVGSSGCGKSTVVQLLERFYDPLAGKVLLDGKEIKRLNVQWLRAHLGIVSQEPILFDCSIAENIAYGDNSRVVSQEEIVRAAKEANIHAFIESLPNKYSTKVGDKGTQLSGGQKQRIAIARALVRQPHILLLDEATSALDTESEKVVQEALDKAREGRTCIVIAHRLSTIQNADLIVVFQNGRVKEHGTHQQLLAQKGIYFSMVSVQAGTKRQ

Compound	ABCG1 Expression Difference [1, 12]	IC50 [2] [µM]	IL-6 (pg/mL) ([2]; compound 7 µM)	IL-6 (pg/mL) ([2]; compound 15 µM)	IL-6 (pg/mL) ([2]; compound 50 µM)	IC50 [3] [µM]	ABCC10 Expression Difference [4, 11]	ABCC10 Expression Difference [4, 12]	ABCB9 Expression Difference [5]	ABCA5 Expression Difference [7, 11]	ABCA5 Expression Difference [7, 12]	IC50 [8] [µM]	TNF-α (pg/mL) ([8]; compound 12.5 µM)	TNF-α (pg/mL) ([8]; compound 25 µM)	TNF-α (pg/mL) ([8]; compound 50 µM)	ABCB6 Expression Difference [9, 12]	ABCB10 Expression Difference [10, 11]	ABCB10 Expression Difference [10, 12]	other results
COc1cc(C2Oc3cc([C@H]4Oc5cc(O)cc(O)c5C(=O)[C@@H]4O)ccc3OC2CO)ccc1O (some centres unmarked) [Silybin AB, silybin]	2.416	4.8 ± 0.3	311 ± 18 ^a pg/mL	173 ± 5 ^b pg/mL	83 ± 4 ^b pg/mL	32.6 ± 3.6	1.855	1.857	1.638	2.122	1.933	38.7	2497 ± 37 ^b pg/mL	2425 ± 145 ^c pg/mL	1177 ± 75 ^d pg/mL	1.838	1.069	2.204	ABCG1 Expression Difference [1, 11]: 1.559; ABCD1 Expression Difference [6, 11]: 2.868; ABCB6 Expression Difference [9, 11]: 1.527
COc1cc([C@@H]2Oc3cc([C@H]4Oc5cc(O)cc(O)c5C(=O)[C@@H]4O)ccc3O[C@H]2CO)ccc1O [Silybin B, silybin B]	0.303	5.2 ± 0.2	297 ± 23 ^a pg/mL	166 ± 6 ^b pg/mL	37 ± 2 ^a pg/mL	51.9 ± 2.1	1.349	0.340	1.241	1.821	0.356	53.3 ± 0.7	2441 ± 68 ^b pg/mL	2375 ± 64 ^c pg/mL	1792 ± 63 ^e pg/mL	0.396	0.835	0.329	ABCG1 Treated vs. Untreated [1, 12]: DOWN; ABCC10 Treated vs. Untreated [4, 12]: DOWN; ABCD1 Expression Difference [6, 12]: 0.348; ABCD1 Treated vs. Untreated [6, 12]: DOWN; ABCA5 Treated vs. Untreated [7, 12]: DOWN; ABCB6 Treated vs. Untreated [9, 12]: DOWN; ABCB10 Treated vs. Untreated [10, 11]: DOWN; ABCB10 Treated vs. Untreated [10, 12]: DOWN
